Reference: patent US20210401867A1, “PHOTOSENSITIZERS AND METHOD OF TREATING CANCER USING THE SAME” (Cheng-Wen Wu, priority 2018, published 2021)

Legend:
[1] = tested on: FaDu cells; experiment: colony forming assay of FaDu cells; type: cell-based, human
Experimental: In the following examples, FaDu cells are used in cell viability tests and colony forming assays. FaDu cells (ATCC HTB-43) is a human head-and-neck cell line with squamous phenotype. FaDu cells used in the following examples are cultured in DMEM medium supplemented with 10% fetal bovine serum (FBS) and 1% penicillin/streptomycin, in a humidified incubator maintained at 37° C. and 5% CO2.
Referring to FIGS. 9A-C, an in vitro cell viability chart of FaDu cells when treated with BrdU alone, NR alone, and BrdU and NR, is provided in accordance with an exemplary embodiment of the present disclosure. NR treatments in FIGS. 9A, 9B, and 9C are similar with the experiment procedures for FIG. 6. In samples where FaDu cells are treated with BrdU and NR, FaDu cells are incubated with BrdU for 24 hours before irradiated with NR. Referring to FIG. 9B, a colony forming assay result of FaDu cells after the treatments described in […], is provided in accordance with an exemplary embodiment of the present disclosure. The colony forming assay in FIG. 9B are proceeded as following: FaDu cells treated by different regimens are grouped and seeded in 6-well-plates with 1000 cells in each of the well and cultured for 14 days; the culture medium was replaced every 3 to 4 days; in the end of the experiment, the cells are washed twice with PBS and fixed with 4% paraformaldehyde for 15 minutes and stained with 0.1% crystal violet. Referring to FIG. 9C, a quantitative result of the colony forming assay in FIG. 9B is provided in accordance with an exemplary embodiment of the present disclosure. In FIG. 9C, the results of the colony forming assay are quantified by microscopic examination by stereomicroscope.

[2] = tested on: FaDu cells; experiment: in vitro cell viability of FaDu cells; type: cell-based, human; conditions: for cytotoxicity: viability and colony forming

With dibromocurcumin [DBC] the “colony forming assay versus DBC or NR alone” value ([1]; DBC combined with 1 Gy of 14 keV NR) was “same result”, the colony forming inhibition ([1]; FaDu cells, 40 μM DBC) was “about 50%” and the “cytotoxicity to FaDu cells” value ([2]; 20 μM of DBC combined with 1 Gy of NR) was “significantly higher than using DBC or NR alone”. For the same substance, the “cytotoxicity of the combination with NR” value ([2]; DBC and NR, FaDu cells) was “synergistic cytotoxicity”, the cytotoxicity ([2]; DBC dosage less than 20 μM) was “little cytotoxicity” and the cytotoxicity ([2]; DBC dosage more than 120 μM) was “efficiently kills FaDu cells”. The cell viability ([2]; FaDu cells, 80 μM DBC for 24 hours, Day 7) was “less than 50%”.
